In patent US8344009B2, “Substituted phenoxy thiazolidinediones as estrogen related receptor-á modulators” (priority 2007, dated 2013):

These compounds were tested against T1, ERR1 (also known as ERR-α or ERR-1) (Homo sapiens, UniProt P11474) (assay: TR-FRET assay (disruption of co-activator peptide binding to ERR1 LBD)). Conditions: not given.
T1 sequence (P11474 193-421 limits assumed): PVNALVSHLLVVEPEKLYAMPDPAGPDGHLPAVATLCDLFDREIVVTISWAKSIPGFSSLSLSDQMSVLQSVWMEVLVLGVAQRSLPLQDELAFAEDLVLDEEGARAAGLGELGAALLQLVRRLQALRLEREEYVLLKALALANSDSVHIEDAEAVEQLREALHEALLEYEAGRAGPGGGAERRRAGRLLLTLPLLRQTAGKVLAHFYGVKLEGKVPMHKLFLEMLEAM
Type: biochemical
Procedure: Time-Resolved Fluorescence Resonance Energy Transfer (TR-FRET) experiments were performed to examine the functional response of ERR1 (also known as ERR-α or ERR-1) ligands. The TR-FRET assay described herein relied on the conformation of ERR1 for binding to a co-activator peptide: when a test compound binds to ERR1 and alters its conformation, it can disrupt the binding of the co-activator peptide. The components of this homogeneous secondary assay included: the ^6His-tagged-ERR1LBD, a GST-labeled-hSRC2 co-activator polypeptide and a fluorescent donor/acceptor pair from CIS bio international htrf/bioassays (Bedford, Mass.) using both an α-GST Europium Cryptate (Eu) label and an α^6His-XL665 (allophycocyanin) fluorophore.
Reactions were allowed to reach equilibrium at 25° C. for 4-18 hours before collecting data on the Analyst from LJL Biosystems (Molecular Devices Sunnyvale, Calif.). […] Dose response curves were fitted using a hyperbolic equation and the data reported is the average of 3 independent experiments.
In the case of COc1cc(/C=C2\SC(=O)NC2=O)ccc1Oc1ccc(C(F)(F)F)cc1Cl [Compound 2, 5-[4-(2-Chloro-4-trifluoromethyl-phenoxy)-3-methoxy-benzylidene]-thiazolidine-2,4-dione], the EC50 is reported as 130 nM. With COc1cc(/C=C2\SC(=O)NC2=O)ccc1Oc1ccc(C(F)(F)F)cc1C#N [Compound 8, 2-[4-(2,4-Dioxo-thiazolidin-5-ylidenemethyl)-2-methoxy-phenoxy]-5-trifluoromethyl-benzonitrile] the EC50 was 550 nM. Work on COC(=O)c1cc(C(F)(F)F)ccc1Oc1ccc(/C=C2\SC(=O)NC2=O)cc1OC [Compound 9, 2-[4-(2,4-Dioxo-thiazolidin-5-ylidenemethyl)-2-methoxy-phenoxy]-5-trifluoromethyl-benzoic acid methyl ester] yielded an EC50 of 480 nM. COC(=O)c1ccc(Oc2ccc(/C=C3\SC(=O)NC3=O)cc2OC)c(C(F)(F)F)c1 [Compound 10, 4-[4-(2,4-Dioxo-thiazolidin-5-ylidenemethyl)-2-methoxy-phenoxy]-3-trifluoromethyl-benzoic acid methyl ester] showed an EC50 of 12 nM. Work on COc1cc(/C=C2\SC(=O)NC2=O)ccc1Oc1ccc(C#N)c2ccccc12 [Compound 19, 4-[4-(2,4-Dioxothiazolidin-5-ylidenemethyl)-2-methoxyphenoxy]naphthalene-1-carbonitrile] yielded an EC50 of 120 nM. For COc1cc(/C=C2\SC(=O)NC2=O)ccc1Oc1ccc(C(F)(F)F)cc1Br [Compound 20, 5-[4-(2-Bromo-4-trifluoromethylphenoxy)-3-methoxybenzylidene]thiazolidine-2,4-dione], the EC50 was 380 nM. Compound COc1cc(/C=C2\SC(=O)NC2=O)ccc1Oc1ccc(C#N)cc1Cl [Compound 21, 3-Chloro-4-[4-(2,4-dioxothiazolidin-5-ylidenemethyl)-2-methoxyphenoxy]benzonitrile] has an EC50 of 430 nM. Work on COc1cc(/C=C2\SC(=O)NC2=O)ccc1Oc1ccc(C#N)cc1Br [Compound 22, 3-Bromo-4-[4-(2,4-dioxothiazolidin-5-ylidenemethyl)-2-methoxyphenoxy]benzonitrile] yielded an EC50 of 480 nM. COC(=O)c1ccc(Oc2ccc(/C=C3\SC(=O)NC3=O)cc2OC)c2ccccc12 [Compound 24] was tested, and the EC50 was 1 nM.

Same assay, conditions: average of 3 independent experiments; read-out: TR-FRET EC50
For COc1cc(/C=C2\SC(=O)NC2=O)ccc1Oc1ccc(S(C)(=O)=O)cc1Br [Compound 3, 5-[4-(2-Bromo-4-methanesulfonyl-phenoxy)-3-methoxy-benzylidene]-thiazolidine-2,4-dione], the EC50 was 1030 nM. For COc1cc(/C=C2\SC(=O)NC2=O)ccc1Oc1ccc(S(C)(=O)=O)cc1Cl [Compound 4, 5-[4-(2-Chloro-4-methanesulfonyl-phenoxy)-3-methoxy-benzylidene]-thiazolidine-2,4-dione], the EC50 was 550 nM. With COc1cc(/C=C2\SC(=O)NC2=O)ccc1Oc1ccc(Br)cc1C(F)(F)F [Compound 5, 5-[4-(4-Bromo-2-trifluoromethyl-phenoxy)-3-methoxy-benzylidene]-thiazolidine-2,4-dione] the EC50 was 570 nM. Compound COc1cc(/C=C2\SC(=O)NC2=O)ccc1Oc1ccc(C(N)=O)cc1C(F)(F)F [Compound 6, 4-[4-(2,4-Dioxo-thiazolidin-5-ylidenemethyl)-2-methoxy-phenoxy]-3-trifluoromethyl-benzamide] has an EC50 of 510 nM. Cc1cc(/C=C2\SC(=O)NC2=O)ccc1Oc1ccc(C#N)c2ccccc12 [Compound 11, 4-[4-(2,4-Dioxo-thiazolidin-5-ylidenemethyl)-2-methyl-phenoxy]-naphthalene-1-carbonitrile] showed an EC50 of 480 nM. N#Cc1ccc(Oc2ccc(/C=C3\SC(=O)NC3=O)cc2F)c(C(F)(F)F)c1 [Compound 12, 4-[4-(2,4-Dioxo-thiazolidin-5-ylidenemethyl)-2-fluoro-phenoxy]-3-trifluoromethyl-benzonitrile] gave an EC50 of 150 nM. Compound CCOc1cc(/C=C2\SC(=O)NC2=O)ccc1Oc1ccc(C#N)cc1C(F)(F)F [Compound 13, 4-[4-(2,4-Dioxo-thiazolidin-5-ylidenemethyl)-2-ethoxy-phenoxy]-3-trifluoromethyl-benzonitrile] has an EC50 of 180 nM. Compound Cc1cc(/C=C2\SC(=O)NC2=O)ccc1Oc1ccc(C#N)cc1C(F)(F)F [Compound 14, 4-[4-(2,4-Dioxo-thiazolidin-5-ylidenemethyl)-2-methyl-phenoxy]-3-trifluoromethyl-benzonitrile] has an EC50 of 200 nM. In the case of CCOc1cc(/C=C2\SC(=O)NC2=O)ccc1Oc1ccc(C#N)c2ccccc12 [Compound 15, 4-[4-(2,4-Dioxo-thiazolidin-5-ylidenemethyl)-2-ethoxy-phenoxy]-naphthalene-1-carbonitrile], the EC50 is reported as 37 nM. Work on N#Cc1ccc(Oc2ccc(/C=C3\SC(=O)NC3=O)cc2Br)c(C(F)(F)F)c1 [Compound 16, 4-[2-Bromo-4-(2,4-dioxo-thiazolidin-5-ylidenemethyl)-phenoxy]-3-trifluoromethyl-benzonitrile] yielded an EC50 of 600 nM. Compound N#Cc1ccc(Oc2ccc(/C=C3\SC(=O)NC3=O)cc2F)c2ccccc12 [Compound 17, 4-[4-(2,4-Dioxo-thiazolidin-5-ylidenemethyl)-2-fluoro-phenoxy]-naphthalene-1-carbonitrile] has an EC50 of 100 nM. In the case of N#Cc1ccc(Oc2ccc(/C=C3\SC(=O)NC3=O)cc2Cl)c(C(F)(F)F)c1 [Compound 18, 4-[2-Chloro-4-(2,4-dioxo-thiazolidin-5-ylidenemethyl)-phenoxy]-3-trifluoromethyl-benzonitrile], the EC50 is reported as 520 nM. COc1cc(/C=C2\OC(=O)NC2=O)ccc1Oc1ccc(C#N)c2ccccc12 [Compound 23, 4-[4-(2,4-Dioxo-oxazolidin-5-ylidenemethyl)-2-methoxy-phenoxy]-naphthalene-1-carbonitrile] was tested, and the EC50 was 480 nM. N#Cc1ccc(Oc2ccc(/C=C3\SC(=O)NC3=O)cc2C(F)(F)F)c(C(F)(F)F)c1 [Compound 26, 4-[4-(2,4-Dioxo-thiazolidin-5-ylidenemethyl)-2-trifluoromethyl-phenoxy]-3-trifluoromethyl-benzonitrile] showed an EC50 of 1000 nM. Compound CCOc1cc(/C=C2\SC(=O)NC2=O)ccc1Oc1ccc(C(N)=O)cc1C(F)(F)F [Compound 27, 4-[4-(2,4-Dioxo-thiazolidin-5-ylidenemethyl)-2-ethoxy-phenoxy]-3-trifluoromethyl-benzamide] has an EC50 of 330 nM. Compound Cc1cc(/C=C2\SC(=O)NC2=O)ccc1Oc1ccc(C(N)=O)cc1C(F)(F)F [Compound 28, 4-[4-(2,4-Dioxo-thiazolidin-5-ylidenemethyl)-2-methyl-phenoxy]-3-trifluoromethyl-benzamide] has an EC50 of 440 nM. N#Cc1ccc(Oc2ccc(/C=C3\SC(=O)NC3=O)cc2OC(F)(F)F)c(C(F)(F)F)c1 [Compound 29, 4-[4-(2,4-Dioxo-thiazolidin-5-ylidenemethyl)-2-trifluoromethoxy-phenoxy]-3-trifluoromethyl-benzonitrile] was tested, and the EC50 was 180 nM. Work on COc1cc(/C=C2\SC(=O)NC2=O)ccc1Oc1ccc(Cl)cc1C(F)(F)F [Compound 30, 5-[4-(4-Chloro-2-trifluoromethyl-phenoxy)-3-methoxy-benzylidene]-thiazolidine-2,4-dione] yielded an EC50 of 8 nM. In the case of O=C1NC(=O)/C(=C/c2ccc(Oc3ccc(Cl)cc3C(F)(F)F)c(F)c2)S1 [Compound 31, 5-[4-(4-Chloro-2-trifluoromethyl-phenoxy)-3-fluoro-benzylidene]thiazolidine-2,4-dione], the EC50 is reported as 33 nM.
